Patent US4877734A, “Microbiologically produced α-acetylamino cinnamic acid acylase, method of its production and its use” (Degussa Aktiengesellschaft and Gesellschaft fur …, priority 1986, dated 1989)
≈ marks a conversion by molar mass, not a printed value.

Assays:
ACA acylase [1] = assay: Substrate specificity, test 3: peptides and N-acyl phenylalanines, amino acids detected with amino acid analyzer; type: biochemical, Brevibacterium spec.; settings: for Activity / Relative Activity: 50 mM substrate, pH 7.5, 30° C.; for Activity: 0.1 U/ml ACA acylase; for Relative Activity: relative to α-acetylamino cinnamic acid = 100%
Description: Other substrates used were N-acetyl-L-phenylalanine, N-methoxycarbonyl-D,L-phenylalanine and various peptides. The test batch contained in these instances:
0.1 M potassium phosphate buffer (pH 7.5)
(§1) The batches (1 ml altogether) were agitated (30° C.) and samples were taken at different times. The amino acids produced by the acylase action were quantitatively detected with the aid of an amino acid analyzer. The activity of the enzymes is also indicated in this instance in international units-an activity of 1 U corresponds to the formation of 1 μmole amino acid per minute. The activities measured with the 3 test batches are listed in column 2 of Table 6 in mU/ml. For the determination of the relative activity (column 3 of Table 6), the activity of the α-acetylamino cinnamic acid as substrate was set equal to 100%.

ACA acylase [2] = assay: Influences of inhibitors and activators on ACA acylase activity (standard conditions, coupled test with D-2-hydroxy-4-methylpentanoic acid dehydrogenase); type: biochemical, Brevibacterium spec.
Description: 0.1 M phosphate buffer for pH 7.5
(§2) limiting amounts of ACA acylase.
(Deviation: The tests with bivalent metal ions were performed in 0.1M tris/HCl buffer for pH 8.0.)

ACA acylase [3] = assay: Substrate specificity, test 1: α-acetylamino cinnamic acid, photometric test coupled with L-phenylalanine dehydrogenase; type: biochemical, Brevibacterium spec.
Description: In a series of parallel batches, the substrate α-acetylamino cinnamic acid was replaced by other compounds and tested to see to what extent the enzyme accepts other substrates. The following test batches were used depending on the substrate used:
1. Test with α-acetylamino cinnamic acid as substrate:
50 mM α-acetylamino cinnamic acid
The activity was measured (at 340 nm) by a photometric test as described in Example 1.
as §1

ACA acylase [4] = assay: Dependency of ACA acylase activity on substrate concentration, coupled with L-phenylalanine dehydrogenase (pH 8.5); type: biochemical, Brevibacterium spec.
Description: 0.7 mM ammonium chloride/ammonia buffer (pH 8.5)
0.5 U L--phenylalanine dehydrogenase
as §2
The α-acetylamino cinnamic acid concentration was varied within a range of 1-36 mM. […] The KM value for α-acetylamino cinnamic acid is 3.9 mM.

ACA acylase [5] = assay: Dependency of ACA acylase activity on substrate concentration, coupled with D-2-hydroxy-4-methylpentanoic acid dehydrogenase (pH 7.5); type: biochemical, Brevibacterium spec.
Description: 0.1 M phosphate buffer (pH 7.5)
0.8 U D--2-hydroxy-4-methylpentanoic acid dehydrogenase
as §2
The α-acetylamino cinnamic acid concentration was varied within a range of 0.1-18 mM. […] The KM value for α-acetylamino cinnamic acid is at 0.45 mM.

ACA acylase [6] = assay: Substrate specificity, test 2: α-acetylamino acrylic acid, photometric test coupled with L-alanine dehydrogenase; type: biochemical, Brevibacterium spec.
Description: 2. Test with α-acetylamino acrylic acid:
50 mM α-acetyl amino acrylic acid
1 U/ml L--alanine dehydrogenase
The activity was measured in an analogous manner (by a photometric test at 340 nm) (1 μmole NADH decrease would correspond to 1 μmole formation of alanine).
as §1

[7] = at 25° C.; cited from earlier work
[8] = reagent concentration 1 nM (so in the source), 0.1 M phosphate buffer pH 7.5, 30° C.
[9] = reagent concentration 10 nM (so in the source), 0.1 M phosphate buffer pH 7.5, 30° C.
[10] = bivalent metal ion, concentration 1 nM (so in the source), 0.1M tris/HCl buffer pH 8.0
[11] = bivalent metal ion, concentration 10 nM (so in the source), 0.1M tris/HCl buffer pH 8.0

Compound: gly-gly-L--phe
- Activity (ACA acylase [1]): 0 mU.ml^-1
- Relative Activity (ACA acylase [1]): 0%

Compound: c1ccc(-c2ccccn2)nc1 [2,2-dipyridyl]
- Residual Activity (ACA acylase [2]; [8]): 97%
- Residual Activity (ACA acylase [2]; [9]): 69%

Compound: [Cl-].[Cl-].[Zn+2] [ZnCl2]
- Residual Activity (ACA acylase [2]; [10]): 86%
- Residual Activity (ACA acylase [2]; [11]): 34%

Compound: OCCS [2-mercaptoethanol]
- Residual Activity (ACA acylase [2]; [8]): 100%
- Residual Activity (ACA acylase [2]; [9]): 100%

Compound: CC(=O)NC(=Cc1ccccc1)C(=O)O [α-acetylamino cinnamic acid]
- Activity (ACA acylase [3]; 50 mM substrate, 0.1 U/ml ACA acylase, pH 9.2): 125 mU.ml^-1
- Substrate specificity: hydrolysis by the enzyme (in words) (ACA acylase [3]; summary of properties): hydrolyzes
- Relative Activity (ACA acylase [3]; α-acetylamino cinnamic acid set equal to 100%, 50 mM substrate, pH 9.2): 100%
- Km (ACA acylase [4]; pH 8.5, coupled with L-phenylalanine dehydrogenase): 3900 µM
- Substrate concentration at which the optimum reaction speed is achieved (ACA acylase [4]; pH 8.5, concentration varied 1-36 mM): 16 mM
- Km (ACA acylase [5]; pH 7.5): 450 µM
- Km (ACA acylase [5]; pH 7.5, coupled with D-2-hydroxy-4-methylpentanoic acid dehydrogenase): 450 µM
- Substrate concentration at which the optimum reaction speed is achieved (ACA acylase [5]; pH 7.5, concentration varied 0.1-18 mM): 5 mM

Compound: L--leu-L--phe
- Activity (ACA acylase [1]): 102 mU.ml^-1
- Relative Activity (ACA acylase [1]): 82%

Compound: gly-L--phe
- Activity (ACA acylase [1]): 40 mU.ml^-1
- Relative Activity (ACA acylase [1]): 32%

Compound: C=C(NC(C)=O)C(=O)O [α-acetylamino acrylic acid]
- Activity (ACA acylase [6]; 50 mM substrate, 0.1 U/ml ACA acylase, pH 8.0): 0 mU.ml^-1
- Relative Activity (ACA acylase [6]; relative to α-acetylamino cinnamic acid = 100%, 50 mM substrate, pH 8.0): 0%
- Substrate specificity: hydrolysis by the enzyme (in words) (ACA acylase [6]; summary of properties): not

Compound: L--leu-L--tyr
- Activity (ACA acylase [1]): 109 mU.ml^-1
- Relative Activity (ACA acylase [1]): 87%

Compound: [Cl][Cd][Cl] [CdCl2]
- Residual Activity (ACA acylase [2]; [10]): 72%
- Residual Activity (ACA acylase [2]; [11]): 29%
- Influence on the enzyme (in words) (ACA acylase [2]; summary of properties): inhibiting action

Compound: [Cl][Mn][Cl] [MnCl2]
- Residual Activity (ACA acylase [2]; [10]): 63%

Compound: L--ala-L--phe
- Activity (ACA acylase [1]): 105 mU.ml^-1
- Relative Activity (ACA acylase [1]): 84%

Compound: COC(=O)NC(Cc1ccccc1)C(=O)O (racemic) [N--methoxycarbonyl D,L--phenylalanine, N-methoxycarbonyl-D,L-phenylalanine]
- Activity (ACA acylase [1]): 0 mU.ml^-1
- Relative Activity (ACA acylase [1]): 0%

Compound: [Cl][Hg].[Cl][Hg] [Hg2 Cl2]
- Influence on the enzyme (in words) (ACA acylase [2]; summary of properties): inhibiting action

Compound: [Ca+2].[Cl-].[Cl-] [CaCl2]
- Residual Activity (ACA acylase [2]; [10]): 99%
- Residual Activity (ACA acylase [2]; [11]): 99%

Compound: L--asp-L--phe
- Activity (ACA acylase [1]): 38 mU.ml^-1
- Relative Activity (ACA acylase [1]): 30%

Compound: L--ala-L--tyr
- Activity (ACA acylase [1]): 78 mU.ml^-1
- Relative Activity (ACA acylase [1]): 62%

Compound: L--his-L--phe
- Activity (ACA acylase [1]): 44 mU.ml^-1
- Relative Activity (ACA acylase [1]): 35%

Compound: gly-D-phe
- Activity (ACA acylase [1]): 0 mU.ml^-1
- Relative Activity (ACA acylase [1]): 0%

Compound: CC(=O)N[C@@H](Cc1ccccc1)C(=O)O [N--acetyl-L--phenylalanine, N-acetyl-L-phenylalanine]
- Activity (ACA acylase [1]): 0 mU.ml^-1
- Relative Activity (ACA acylase [1]): 0%
- Substrate specificity: hydrolysis by the enzyme (in words) (ACA acylase [1]; summary of properties): not

Compound: N[C@@H](CCC(=O)N[C@@H](CS)C(=O)NCC(=O)O)C(=O)O [red. glutathione]
- Residual Activity (ACA acylase [2]; [8]): 102%
- Residual Activity (ACA acylase [2]; [9]): 81%

Compound: N[C@@H](Cc1ccccc1)C(=O)O [Phe, L-phenylalanine]
- solubility in H2 O [7]: 180000 µM (≈ 29.7 mg/mL)

Compound: O[C@H](CS)[C@H](O)CS (racemic) [dithiothreitol]
- Influence on the enzyme (in words) (ACA acylase [2]; addition of 1 mmole): activates
- Residual Activity (ACA acylase [2]; [8]): 146%
- Residual Activity (ACA acylase [2]; [9]): 123%

Compound: L--ala-L--his
- Activity (ACA acylase [1]): 43 mU.ml^-1
- Relative Activity (ACA acylase [1]): 34%

Compound: [Cl][Ni][Cl] [NiCl2]
- Residual Activity (ACA acylase [2]; [10]): 83%
- Residual Activity (ACA acylase [2]; [11]): 53%

Compound: c1cnc2c(c1)ccc1cccnc12 [o-phenanthroline]
- Residual Activity (ACA acylase [2]; [8]): 72%
- Residual Activity (ACA acylase [2]; [9]): 45%
- Influence on the enzyme (in words) (ACA acylase [2]; summary of properties): inhibiting action

Compound: p-mercuric benzoate
- Residual Activity (ACA acylase [2]; [8]): 41%
- Residual Activity (ACA acylase [2]; [9]): 3%
- Influence on the enzyme (in words) (ACA acylase [2]; summary of properties): inhibiting action

Compound: O=C(O)CN(CCN(CC(=O)O)CC(=O)O)CC(=O)O [EDTA]
- Residual Activity (ACA acylase [2]; [8]): 111%
- Residual Activity (ACA acylase [2]; [9]): 102%

Compound: L--leu-L--trp
- Activity (ACA acylase [1]): 67 mU.ml^-1
- Relative Activity (ACA acylase [1]): 54%

Compound: [Cl][Hg][Cl] [HgCl2]
- Residual Activity (ACA acylase [2]; [10]): 51%
- Residual Activity (ACA acylase [2]; [11]): 0%

Compound: L--ala-L--trp
- Activity (ACA acylase [1]): 66 mU.ml^-1
- Relative Activity (ACA acylase [1]): 53%

Compound: L--phe-L--phe
- Activity (ACA acylase [1]): 41 mU.ml^-1
- Relative Activity (ACA acylase [1]): 33%

Compound: L--ser-L--phe
- Activity (ACA acylase [1]): 36 mU.ml^-1
- Relative Activity (ACA acylase [1]): 29%

Compound: [Cl-].[Cl-].[Mg+2] [MgCl2]
- Residual Activity (ACA acylase [2]; [10]): 100%
- Residual Activity (ACA acylase [2]; [11]): 100%
